Test system: 92 target genes related to melanogenesis
Test: RHE vitiligo model: gene expression analysis (TaqMan low density array, RT-qPCR)
Type: cell-based, human
Set-up: key to FC of XPC gene expression / FC of GNAS gene expression / FC of ATP7A gene expression / FC of TYR gene expression / FC of RAB27A gene expression / FC of KITLG gene expression / FC of ADCY2 gene expression: fold change in expression by comparative Ct (ΔΔCt) method
Procedure: At the end of the treatments, total RNAs is extracted from 3 epidermis per condition (n=3) using the Qiagen RNeasy kit (Qiagen; 74106). Epidermis is rinsed with cold PBS and lysed in the ad hoc buffer provided in the kit. Extraction is performed according to the supplier's recommendations. The collected RNAs is stored at −80° C.
The RNA concentration is determined by spectrophotometric measurement (QIAxpert, Qiagen) and the RNA quality is analyzed by capillarity electrophoresis (Agilent Bioanalyzer 2100-Agilent RNA 6000 Nano Kit, 5067-1511). The integrity of the total RNA is assessed by visualization of intact ribosomal RNA bands. For the total RNA from higher eukaryotes, the size of the ribosomal bands should be 1.9 kb for the 18S-RNA and 4.7 kb for the 28S-RNA. The intensity of the band corresponding to the 28S RNA must be greater than the intensity of the band corresponding to the 18S-RNA (left profile, in image below). Small and diffuse bands representing low molecular weight RNAs (tRNA and 5S ribosomal RNA) may be present. Degradation of the RNA is apparent as a smearing of ribosomal RNA bands and high molecular weight background as shown below (right profile, in image below).
Reverse transcription is performed with the high-capacity RNA-to-cDNA kit (Applied Biosystems; 438706) from total RNA according to the manufacturer's instructions. The cDNAs are then stored at −20° C. until use in polymerase chain reactions.
The microfluidic TaqMan qPCR arrays (or TaqMan low density arrays) were designed by StratiCELL and manufactured on demand by Applied Biosystems. […]
The TaqMan arrays are processed as described by the manufacturer's instructions (Micro Fluidic Card Getting Started Guide, Applied Biosystems). Briefly, cDNAs are mixed with a specific buffer (TaqMan Fast Advanced Master Mix, 4444557, Applied Biosystems) before being injected into the arrays and dispersed into the wells by centrifugation. Arrays are sealed and qPCRs are run using the Quantstudio7 Real-Time PCR System (Applied Biosystems) and its software (QuantStudio real time PCR Software v1.3. software, Applied Biosystems).
Threshold cycles (Ct) are obtained for each gene. Results files are exported from the qPCR device and analyzed using the DataAssist Software (v3.00, Applied Biosystems) designed to perform relative quantification of gene expression using the comparative Ct (ΔΔCt) method, through a combination of statistical analysis.
The data obtained for the conditions treated with the formulations is compared to the untreated condition or to the condition treated with the vehicle. The effects of the cytokine cocktail stimulation are analyzed as well by comparison of the data obtained for the untreated control (unstimulated) to the data obtained for the stimulated untreated control. The Ct values are normalized to the mean Ct of 3 housekeeping genes present on the array. The maximum Ct cut-off value was fixed at 36 cycles meaning that Ct values above 36 are not considered in the analysis. […]

[1] = Stimulated + BETi1 0.001% vs Stimulated + BETi1 vehicle, results after correction
[2] = Stimulated + BETi1 0.001% vs Stimulated + BETi1 vehicle, results after correction, inconclusive, Ct of some replicates above 36
[3] = Stimulated + BETi1 0.001% vs Stimulated + BETi1 vehicle, results as originally presented (transcription error)
[4] = Stimulated + BETi1 0.001% vs Stimulated + BETi1 vehicle, results as originally presented (transcription error), inconclusive, Ct of some replicates above 36
[5] = Stimulated + BETi1 1% vs Stimulated + BETi1 vehicle, results after correction
[6] = Stimulated + BETi1 1% vs Stimulated + BETi1 vehicle, results after correction, inconclusive, Ct of some replicates above 36
[7] = Stimulated + BETi1 1% vs Stimulated + BETi1 vehicle, results as originally presented (transcription error for some genes)
[8] = Stimulated + BETi1 1% vs Stimulated + BETi1 vehicle, results as originally presented (transcription error for some genes), inconclusive, Ct of some replicates above 36
[9] = Stimulated RHE treated with BETi1 at 0.01% vs BETi1 vehicle
[10] = Stimulated RHE treated with BETi1 at 0.1% vs BETi1 vehicle
[11] = stimulated RHE, vs stimulated + vehicle
[12] = stimulated RHE, vs stimulated + vehicle, listed as BETi1 0.1%
[13] = stimulated RHE, vs stimulated + vehicle, listed as BETi1 1%

Cn1cc(-c2cccc(O)c2Oc2ccccc2)c2cc[nH]c2c1=O [BETi1]
WNT signaling pathway upregulation, increase (1% concentration, relative to vehicle / stimulated control): 10 fold
FC of AP1M1 gene expression [1]: 0.7447
FC of APAF1 gene expression [1]: 1.5797
FC of BCL2 gene expression [1]: 0.7462
FC of HPS4 gene expression [1]: 0.6711
FC of POMC gene expression [1]: 0.5586
FC of ASIP gene expression [2]: 0.7104
FC of CALML6 gene expression [2]: 0.7104
FC of GNAO1 gene expression [2]: 0.7104
FC of AP1M1 gene expression [3]: 0.6303
FC of APAF1 gene expression [3]: 3.5532
FC of BCL2 gene expression [3]: 1.3312
FC of HPS4 gene expression [3]: 0.4147
FC of POMC gene expression [3]: 0.3574
FC of ASIP gene expression [4]: 0.6303
FC of GNAO1 gene expression [4]: 0.6303
FC of AIM1 gene expression [5]: 0.4502
FC of AP1S1 gene expression [5]: 0.6116
FC of ATP2A2 gene expression [5]: 0.2632
FC of ATP7A gene expression [5]: 0.4094
FC of BAD gene expression [5]: 0.2547
FC of BCL2 gene expression [5]: 0.5772
FC of CREBBP gene expression [5]: 0.3195
FC of DVL1 gene expression [5]: 0.4492
FC of EDN1 gene expression [5]: 0.0395
FC of EDNRB gene expression [5]: 0.1544
FC of GADD45A gene expression [5]: 0.2375
FC of GNAI1 gene expression [5]: 0.3672
FC of GNAS gene expression [5]: 0.4273
FC of HPS1 gene expression [5]: 0.5127
FC of HPS4 gene expression [5]: 0.3088
FC of IL1A gene expression [5]: 0.0124
FC of IL1B gene expression [5]: 0.0208
FC of KIT gene expression [5]: 0.6404
FC of MAPK14 gene expression [5]: 0.3927
FC of MLPH gene expression [5]: 0.3039
FC of MYO5A gene expression [5]: 0.4524
FC of OCA2 gene expression [5]: 0.293
FC of PCNA gene expression [5]: 7.0134
FC of POMC gene expression [5]: 0.1039
FC of PTGER3 gene expression [5]: 0.4259
FC of RAB3A gene expression [5]: 14.5685
FC of RAB27A gene expression [5]: 0.2763
FC of RAB32 gene expression [5]: 0.1471
FC of RAB38 gene expression [5]: 0.3579
FC of SLC24A5 gene expression [5]: 0.1051
FC of SNAP25 gene expression [5]: 0.2366
FC of SOX9 gene expression [5]: 0.0882
FC of SOX10 gene expression [5]: 0.4034
FC of STX6 gene expression [5]: 0.3683
FC of TYR gene expression [5]: 0.405
FC of USF1 gene expression [5]: 0.497
FC of WNT16 gene expression [5]: 10.0801
FC of XPC gene expression [5]: 1.6569
FC of ASIP gene expression [6]: 0.4753
FC of CALML6 gene expression [6]: 0.4753
FC of CAMK2A gene expression [6]: 0.4753
FC of GNAO1 gene expression [6]: 0.4753
FC of PTGER1 gene expression [6]: 0.4753
FC of AIM1 gene expression [7]: 0.4753
FC of AP1S1 gene expression [7]: 0.727
FC of ATP2A2 gene expression [7]: 0.293
FC of ATP7A gene expression [7]: 0.4273
FC of BAD gene expression [7]: 0.2763
FC of BCL2 gene expression [7]: 0.6404
FC of CREBBP gene expression [7]: 0.3672
FC of DVL1 gene expression [7]: 0.4524
FC of EDN1 gene expression [7]: 0.1039
FC of EDNRB gene expression [7]: 0.2375
FC of GADD45A gene expression [7]: 0.2632
FC of GNAI1 gene expression [7]: 0.3927
FC of GNAS gene expression [7]: 0.4502
FC of HPS1 gene expression [7]: 0.6116
FC of HPS4 gene expression [7]: 0.3579
FC of IL1A gene expression [7]: 0.0395
FC of IL1B gene expression [7]: 0.0882
FC of KIT gene expression [7]: 1.6569
FC of MAPK14 gene expression [7]: 0.405
FC of MLPH gene expression [7]: 0.3195
FC of MYO5A gene expression [7]: 0.4753
FC of OCA2 gene expression [7]: 0.3088
FC of PCNA gene expression [7]: 7.0134
FC of POMC gene expression [7]: 0.1471
FC of PTGER3 gene expression [7]: 0.4492
FC of RAB3A gene expression [7]: 14.5685
FC of RAB27A gene expression [7]: 0.3039
FC of RAB32 gene expression [7]: 0.2366
FC of RAB38 gene expression [7]: 0.3683
FC of SLC24A5 gene expression [7]: 0.1544
FC of SNAP25 gene expression [7]: 0.2547
FC of SOX9 gene expression [7]: 0.1051
FC of SOX10 gene expression [7]: 0.4094
FC of STX6 gene expression [7]: 0.4034
FC of TYR gene expression [7]: 0.4259
FC of USF1 gene expression [7]: 0.5772
FC of WNT16 gene expression [7]: 10.0801
FC of XPC gene expression [7]: 1.8367
FC of ASIP gene expression [8]: 0.5127
FC of CALML6 gene expression [8]: 0.497
FC of CAMK2A gene expression [8]: 0.4753
FC of GNAO1 gene expression [8]: 0.4753
FC of PTGER1 gene expression [8]: 0.4753
FC of AP1S1 gene expression [9]: 1.3312
FC of ASIP gene expression [9]: 0.6303
FC of CALML6 gene expression [9]: 0.6303
FC of CAMK2A gene expression [9]: 0.6303
FC of GADD45A gene expression [9]: 0.3574
FC of GNAO1 gene expression [9]: 0.6303
FC of POMC gene expression [9]: 0.4147
FC of RAB3A gene expression [9]: 3.5532
FC of ADCY2 gene expression [10]: 0.1137
FC of AP1M1 gene expression [10]: 0.6311
FC of ATP2A2 gene expression [10]: 0.2769
FC of BAD gene expression [10]: 0.2735
FC of CALML6 gene expression [10]: 0.5429
FC of CAMK2A gene expression [10]: 0.5043
FC of EDN1 gene expression [10]: 0.0413
FC of EDNRB gene expression [10]: 0.2737
FC of GADD45A gene expression [10]: 0.1803
FC of GNAI1 gene expression [10]: 0.5815
FC of HPS4 gene expression [10]: 0.4224
FC of IL1A gene expression [10]: 0.0454
FC of IL1B gene expression [10]: 0.0727
FC of KITLG gene expression [10]: 1.8415
FC of MAPK14 gene expression [10]: 0.4724
FC of MLPH gene expression [10]: 0.355
FC of MYO5A gene expression [10]: 0.5462
FC of PCNA gene expression [10]: 3.2615
FC of POMC gene expression [10]: 0.1665
FC of PPIA gene expression [10]: 1.6969
FC of PTGER3 gene expression [10]: 0.4799
FC of RAB3A gene expression [10]: 10.8195
FC of RAB32 gene expression [10]: 0.2378
FC of RAB38 gene expression [10]: 0.5643
FC of SLC24A5 gene expression [10]: 0.272
FC of SOX9 gene expression [10]: 0.1155
FC of SOX10 gene expression [10]: 0.4196
FC of STX6 gene expression [10]: 0.4214
FC of WNT16 gene expression [10]: 8.7922
RQ (fold change) AP1S1 [11]: 1.3312
RQ (fold change) APAF1 [11]: 1.5797
RQ (fold change) HSP4 [11]: 0.6711
RQ (fold change) KITLG [11]: 1.8415
RQ (fold change) POMC [11]: 0.5586
RQ (fold change) PPIA [11]: 1.6969
RQ (fold change) XPC [11]: 1.6569
RQ (fold change) RAB3A (stimulated RHE, vs stimulated + vehicle, listed as BETi1 0.01%): 3.5532
RQ (fold change) EDN1 [12]: 0.0413
RQ (fold change) IL1A [12]: 0.0454
RQ (fold change) IL1B [12]: 0.0727
RQ (fold change) PCNA [12]: 3.2615
RQ (fold change) RAB3A [12]: 10.8195
RQ (fold change) SOX9 [12]: 0.1155
RQ (fold change) WNT16 [12]: 8.7922
RQ (fold change) EDN1 [13]: 0.0395
RQ (fold change) IL1A [13]: 0.0124
RQ (fold change) IL1B [13]: 0.0208
RQ (fold change) PCNA [13]: 7.0134
RQ (fold change) RAB3A [13]: 14.5685
RQ (fold change) SOX9 [13]: 0.0882
RQ (fold change) WNT16 [13]: 10.0801
